Assay results: patent US20140213576A1, “NOVEL COMPOUND USEFUL FOR THE TREATMENT OF DEGENERATIVE AND INFLAMMATORY DISEASES” (GALAPAGOS NV, priority 2013, published 2014)

How the values were obtained:
[1] = system: Collagen Induced Arthritis (CIA); test: Rat CIA model; type: in vivo; settings: p.o., therapeutic dosing day 16 to day 30
Procedure: Completed Freund's adjuvant (CFA) and incomplete Freund's adjuvant (IFA) were purchased from Difco. Bovine collagen type II (CII), lipopolysaccharide (LPS), and Enbrel was obtained from Chondrex (Isle d'Abeau, France); Sigma (P4252, L'Isle d'Abeau, France), […] (25 mg injectable syringe, France) Acros Organics (Palo Alto, Calif.), respectively. All other reagents used were of reagent grade and all solvents were of analytical grade. Dark Agouti rats (male, 7-8 weeks old) were obtained from Harlan Laboratories (Maison-Alfort, France). Rats were kept on a 12 h light/dark cycle (0700-1900). Temperature was maintained at 22° C., and food and water were provided ad libitum. […] A compound of interest was typically tested at 5 doses, e.g. 1, 2, 3, 5, and 10 mg/kg, p.o. Arthritis is scored according to the method of Khachigian 2006, Lin et al 2007 and Nishida et al. 2004). […] To permit the meta-analysis of multiple studies the clinical score values were normalised as follows: AUC of clinical score (AUC score): The area under the curve (AUC) from day 1 to day 14 was calculated for each individual rat. The AUC of each animal was divided by the average AUC obtained for the vehicle in the study from which the data on that animal was obtained and multiplied by 100 (i.e. the AUC was expressed as a percentage of the average vehicle AUC per study). […]

[2] = system: GM-CSF-induced STAT5 phosphorylation; test: Whole blood assay, GM-CSF stimulation, phospho-STAT5 by FACS; type: cell-based; settings: human whole blood, CD14+ cells, 8 different donors
Procedure: In addition, a flow cytometry analysis was performed to establish JAK1 over JAK2 compound selectivity ex vivo using human whole blood. Therefore, blood was taken from human volunteers who gave informed consent. Blood was then equilibrated for 30 min at 37° C. under gentle rocking, then aliquoted in Eppendorf tubes. Compound was added at different concentrations and incubated at 37° C. for 30 min under gentle rocking and subsequently stimulated for 20 min at 37° C. under gentle rocking with interleukin 6 (IL-6) for JAK1-dependent pathway stimulation or GM-CSF for JAK2-dependent pathway stimulation. Phospho-STAT1 and phospho-STAT5 were then evaluated using FACS analysis.
For GM-CSF-stimulated increase of Signal Transducers and Activators of Transcription 5 (pSTAT5) phosphorylation in white blood cell, human whole blood, drawn from human volunteers who gave informed consent, is ex vivo treated with compound for 30 min and subsequently stimulated for 20 min with GM-CSF. The increase in phosphorylation of STAT5 by GM-CSF in monocytes is measured using an anti phospho-STAT5 antibody by FACS. […]
Cells are then washed once with 1×PBS and analyzed on a FACSCanto II flow cytometer (BD Biosciences).
50,000 total events are counted and Phospho-STAT5 positive cells are measured after gating on CD14+ cells. […]

- IC50 [2]: > 22.4 µM
Compound: CCc1cc(C2CN(S(C)(=O)=O)C2)ncc1N(C)c1cc2c(cn1)ncn2C [Compound 1, [4-Ethyl-6-(1-methanesulfonyl-azetidin-3-yl)-pyridin-3-yl]-methyl-(1-methyl-1H-imidazo[4,5-d]pyridin-6-yl)-amine]
- dose from which statistically significant efficacy was displayed [1]: ≥ 3 mg/kg
